Measured values reported in PubChem BioAssay AID1919017 (Molecular Pharmacology Branch, DTP, NCI, 2023).

Test system: SW1271 complex spheroids with HUVEC/MSC, growth, % test/control
Experiment: Anticancer human tumor SW1271 cell line growth inhibition [AhR];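 also: spheroids exposed to agents for 7 days before readout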
Details: for IC50: curve of first compound; for viability, T/C: stronger effect = lower value
Outline: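 Complex tumor spheroids co-cultured with HUVEC and human MSC stroma; AhR antagonists tested in combination with standard-of-care and investigational agents. Top concentration at or near clinical Cmax (else 10 microM), half-log dilutions; growth expressed as percent test/control.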

[1] = second compound 0.1 µM, first compound 0.0316 µM
[2] = second compound 0.1 µM, first compound 0.1 µM
[3] = second compound 0.1 µM, first compound 0.316 µM
[4] = second compound 0.1 µM, first compound 1 µM
[5] = second compound 0.1 µM, first compound 3.16 µM
[6] = second compound 0.1 µM, first compound 10 µM
[7] = second compound 0.316 µM, first compound 0.0316 µM
[8] = second compound 0.316 µM, first compound 0.1 µM
[9] = second compound 0.316 µM, first compound 0.316 µM
[10] = second compound 0.316 µM, first compound 1 µM
[11] = second compound 0.316 µM, first compound 3.16 µM
[12] = second compound 0.316 µM, first compound 10 µM
[13] = second compound 1 µM, first compound 0.0316 µM
[14] = second compound 1 µM, first compound 0.1 µM
[15] = second compound 1 µM, first compound 0.316 µM
[16] = second compound 1 µM, first compound 1 µM
[17] = second compound 1 µM, first compound 3.16 µM
[18] = second compound 1 µM, first compound 10 µM
[19] = second compound 3.16 µM, first compound 0.0316 µM
[20] = second compound 3.16 µM, first compound 0.1 µM
[21] = second compound 3.16 µM, first compound 0.316 µM
[22] = second compound 3.16 µM, first compound 1 µM
[23] = second compound 3.16 µM, first compound 3.16 µM
[24] = second compound 3.16 µM, first compound 10 µM
[25] = second compound 10 µM, first compound 0.0316 µM
[26] = second compound 10 µM, first compound 0.1 µM
[27] = second compound 10 µM, first compound 0.316 µM
[28] = second compound 10 µM, first compound 1 µM
[29] = second compound 10 µM, first compound 3.16 µM
[30] = second compound 10 µM, first compound 10 µM

CC1(C)CCC(CN2CCN(c3ccc(C(=O)NS(=O)(=O)c4ccc(NCC5CCOCC5)c([N+](=O)[O-])c4)c(Oc4cnc5[nH]ccc5c4)c3)CC2)=C(c2ccc(Cl)cc2)C1 + Cc1cncc(-c2nc(NCCc3c[nH]c4ccccc34)c3ncn(C(C)C)c3n2)c1 gave an IC50 (second compound 0.1 µM) greater than 10 µM, an IC50 (second compound 0.316 µM) greater than 10 µM and an IC50 (second compound 1 µM) greater than 10 µM. It also gave an IC50 (second compound 3.16 µM) greater than 10 µM, an IC50 (second compound 10 µM) of less than 0.0316 µM and a viability, T/C [1] of 101%. The viability, T/C [2] was 92.7%, the viability, T/C [3] was 101% and the viability, T/C [4] was 116%. The viability, T/C [5] was 131%, the viability, T/C [6] was 95.7% and the viability, T/C [7] was 95%. The viability, T/C [8] was 93.3%, the viability, T/C [9] was 102% and the viability, T/C [10] was 88.4%. The viability, T/C [11] was 101%, the viability, T/C [12] was 125% and the viability, T/C [13] was 95.5%. For the same compound, the viability, T/C [14] was 79.8%, the viability, T/C [15] was 104% and the viability, T/C [16] was 90.5%. It also gave a viability, T/C [17] of 111%, a viability, T/C [18] of 102% and a viability, T/C [19] of 120%. For the same compound, the viability, T/C [20] was 98.5%, the viability, T/C [21] was 102% and the viability, T/C [22] was 94.7%. It also gave a viability, T/C [23] of 115%, a viability, T/C [24] of 110% and a viability, T/C [25] of 36.9%. For the same compound, the viability, T/C [26] was 46%, the viability, T/C [27] was 49.5% and the viability, T/C [28] was 33.6%. The viability, T/C [29] was 48.9% and the viability, T/C [30] was 44.9%.
CCN(c1cc(-c2ccc(CN3CCOCC3)cc2)cc(C(=O)NCc2c(C)cc(C)[nH]c2=O)c1C)C1CCOCC1 + Cc1cncc(-c2nc(NCCc3c[nH]c4ccccc34)c3ncn(C(C)C)c3n2)c1 was tested, and the IC50 (second compound 0.1 µM) was greater than 3 µM, the IC50 (second compound 0.316 µM) was greater than 3 µM and the IC50 (second compound 1 µM) was greater than 3 µM. For the same compound, the IC50 (second compound 3.16 µM) was greater than 3 µM, the IC50 (second compound 10 µM) was less than 0.00949 µM and the viability, T/C (second compound 0.1 µM, first compound 0.00949 µM) was 81%. For the same compound, the viability, T/C (second compound 0.1 µM, first compound 0.03 µM) was 100%, the viability, T/C (second compound 0.1 µM, first compound 0.0949 µM) was 108% and the viability, T/C (second compound 0.1 µM, first compound 0.3 µM) was 97.5%. It also gave a viability, T/C (second compound 0.1 µM, first compound 0.949 µM) of 99.7%, a viability, T/C (second compound 0.1 µM, first compound 3 µM) of 118% and a viability, T/C (second compound 0.316 µM, first compound 0.00949 µM) of 99%. The viability, T/C (second compound 0.316 µM, first compound 0.03 µM) was 105%, the viability, T/C (second compound 0.316 µM, first compound 0.0949 µM) was 103% and the viability, T/C (second compound 0.316 µM, first compound 0.3 µM) was 124%. The viability, T/C (second compound 0.316 µM, first compound 0.949 µM) was 106%, the viability, T/C (second compound 0.316 µM, first compound 3 µM) was 115% and the viability, T/C (second compound 1 µM, first compound 0.00949 µM) was 94.6%. For the same compound, the viability, T/C (second compound 1 µM, first compound 0.03 µM) was 112%, the viability, T/C (second compound 1 µM, first compound 0.0949 µM) was 118% and the viability, T/C (second compound 1 µM, first compound 0.3 µM) was 94.1%. The viability, T/C (second compound 1 µM, first compound 0.949 µM) was 106%, the viability, T/C (second compound 1 µM, first compound 3 µM) was 110% and the viability, T/C (second compound 3.16 µM, first compound 0.00949 µM) was 101%. For the same compound, the viability, T/C (second compound 3.16 µM, first compound 0.03 µM) was 109%, the viability, T/C (second compound 3.16 µM, first compound 0.0949 µM) was 97% and the viability, T/C (second compound 3.16 µM, first compound 0.3 µM) was 87.9%. For the same compound, the viability, T/C (second compound 3.16 µM, first compound 0.949 µM) was 96%, the viability, T/C (second compound 3.16 µM, first compound 3 µM) was 91.2% and the viability, T/C (second compound 10 µM, first compound 0.00949 µM) was 48.8%. The viability, T/C (second compound 10 µM, first compound 0.03 µM) was 46.5%, the viability, T/C (second compound 10 µM, first compound 0.0949 µM) was 45.2% and the viability, T/C (second compound 10 µM, first compound 0.3 µM) was 38.3%. It also gave a viability, T/C (second compound 10 µM, first compound 0.949 µM) of 27.5% and a viability, T/C (second compound 10 µM, first compound 3 µM) of 6.84%.
Cn1ncnc1C1c2n[nH]c(=O)c3cc(F)cc(c23)NC1c1ccc(F)cc1 (stereo not given) + Cc1cncc(-c2nc(NCCc3c[nH]c4ccccc34)c3ncn(C(C)C)c3n2)c1 gave an IC50 (second compound 0.1 µM) greater than 0.1 µM, an IC50 (second compound 0.316 µM) greater than 0.1 µM and an IC50 (second compound 1 µM) greater than 0.1 µM. For the same compound, the IC50 (second compound 3.16 µM) was greater than 0.1 µM, the IC50 (second compound 10 µM) was greater than 0.1 µM and the viability, T/C (second compound 0.1 µM, first compound 0.000316 µM) was 111%. The viability, T/C (second compound 0.1 µM, first compound 0.001 µM) was 103%, the viability, T/C (second compound 0.1 µM, first compound 0.00316 µM) was 94.4% and the viability, T/C (second compound 0.1 µM, first compound 0.01 µM) was 119%. It also gave a viability, T/C [1] of 110%, a viability, T/C [2] of 107% and a viability, T/C (second compound 0.316 µM, first compound 0.000316 µM) of 96.2%. The viability, T/C (second compound 0.316 µM, first compound 0.001 µM) was 90.7%, the viability, T/C (second compound 0.316 µM, first compound 0.00316 µM) was 88.6% and the viability, T/C (second compound 0.316 µM, first compound 0.01 µM) was 98.2%. The viability, T/C [7] was 77.4%, the viability, T/C [8] was 91% and the viability, T/C (second compound 1 µM, first compound 0.000316 µM) was 91.8%. For the same compound, the viability, T/C (second compound 1 µM, first compound 0.001 µM) was 103%, the viability, T/C (second compound 1 µM, first compound 0.00316 µM) was 92.4% and the viability, T/C (second compound 1 µM, first compound 0.01 µM) was 95.8%. For the same compound, the viability, T/C [13] was 94.7%, the viability, T/C [14] was 83.3% and the viability, T/C (second compound 3.16 µM, first compound 0.000316 µM) was 103%. It also gave a viability, T/C (second compound 3.16 µM, first compound 0.001 µM) of 105%, a viability, T/C (second compound 3.16 µM, first compound 0.00316 µM) of 88.2% and a viability, T/C (second compound 3.16 µM, first compound 0.01 µM) of 92%. It also gave a viability, T/C [19] of 98.6%, a viability, T/C [20] of 94.7% and a viability, T/C (second compound 10 µM, first compound 0.000316 µM) of 44.9%. It also gave a viability, T/C (second compound 10 µM, first compound 0.001 µM) of 43.8%, a viability, T/C (second compound 10 µM, first compound 0.00316 µM) of 86.5% and a viability, T/C (second compound 10 µM, first compound 0.01 µM) of 53.5%. The viability, T/C [25] was 61.3% and the viability, T/C [26] was 40.7%.
Work on NS(=O)(=O)OCC1CC(n2ccc3c(NC4CCc5ccccc54)ncnc32)CC1O (stereo not given) + Cc1cncc(-c2nc(NCCc3c[nH]c4ccccc34)c3ncn(C(C)C)c3n2)c1 yielded an IC50 (second compound 0.1 µM) greater than 10 µM, an IC50 (second compound 0.316 µM) greater than 10 µM and an IC50 (second compound 1 µM) greater than 10 µM. For the same compound, the IC50 (second compound 3.16 µM) was greater than 10 µM, the IC50 (second compound 10 µM) was 0.512 µM and the viability, T/C [1] was 129%. For the same compound, the viability, T/C [2] was 140%, the viability, T/C [3] was 145% and the viability, T/C [4] was 86%. The viability, T/C [5] was 76.5%, the viability, T/C [6] was 71.8% and the viability, T/C [7] was 131%. For the same compound, the viability, T/C [8] was 177%, the viability, T/C [9] was 136% and the viability, T/C [10] was 100%. For the same compound, the viability, T/C [11] was 76.7%, the viability, T/C [12] was 81% and the viability, T/C [13] was 143%. For the same compound, the viability, T/C [14] was 166%, the viability, T/C [15] was 154% and the viability, T/C [16] was 76.3%. For the same compound, the viability, T/C [17] was 75%, the viability, T/C [18] was 79% and the viability, T/C [19] was 185%. It also gave a viability, T/C [20] of 168%, a viability, T/C [21] of 158% and a viability, T/C [22] of 71.2%. For the same compound, the viability, T/C [23] was 63.3%, the viability, T/C [24] was 66.1% and the viability, T/C [25] was 94.1%. It also gave a viability, T/C [26] of 96.3%, a viability, T/C [27] of 54.7% and a viability, T/C [28] of 44.5%. It also gave a viability, T/C [29] of 44.4% and a viability, T/C [30] of 41.3%.
